# Measurements reported in patent publication US10323022B2, “Pyrrolidinyl urea, pyrrolidinyl thiourea and pyrrolidinyl guanidine compounds as TrkA kinase inhibitors” (Array BioPharma Inc., priority 2011, dated 2019).
# Molecular target: TrkA (Homo sapiens (Human), UniProt P04629)
# Experiment: TrkA Omnia Assay
# Assay type: biochemical
# Settings: averaged IC50; 20 nM enzyme, 500 μM ATP, 10 μM peptide substrate
# In short: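 Recombinant TrkA (20 nM) preincubated 10 min at ambient temperature with compound, then Omnia Tyr Peptide #4 (10 μM) and ATP (500 μM) added in 25 mM MOPS pH 7.5, 5 mM MgCl2, 0.005% Triton X-100. Fluorescence (ex 360/em 485 nm) followed continuously for 70 min; IC50 from initial rates by 4- or 5-parameter logistic fit.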
# Chain of TrkA (P04629 33-796): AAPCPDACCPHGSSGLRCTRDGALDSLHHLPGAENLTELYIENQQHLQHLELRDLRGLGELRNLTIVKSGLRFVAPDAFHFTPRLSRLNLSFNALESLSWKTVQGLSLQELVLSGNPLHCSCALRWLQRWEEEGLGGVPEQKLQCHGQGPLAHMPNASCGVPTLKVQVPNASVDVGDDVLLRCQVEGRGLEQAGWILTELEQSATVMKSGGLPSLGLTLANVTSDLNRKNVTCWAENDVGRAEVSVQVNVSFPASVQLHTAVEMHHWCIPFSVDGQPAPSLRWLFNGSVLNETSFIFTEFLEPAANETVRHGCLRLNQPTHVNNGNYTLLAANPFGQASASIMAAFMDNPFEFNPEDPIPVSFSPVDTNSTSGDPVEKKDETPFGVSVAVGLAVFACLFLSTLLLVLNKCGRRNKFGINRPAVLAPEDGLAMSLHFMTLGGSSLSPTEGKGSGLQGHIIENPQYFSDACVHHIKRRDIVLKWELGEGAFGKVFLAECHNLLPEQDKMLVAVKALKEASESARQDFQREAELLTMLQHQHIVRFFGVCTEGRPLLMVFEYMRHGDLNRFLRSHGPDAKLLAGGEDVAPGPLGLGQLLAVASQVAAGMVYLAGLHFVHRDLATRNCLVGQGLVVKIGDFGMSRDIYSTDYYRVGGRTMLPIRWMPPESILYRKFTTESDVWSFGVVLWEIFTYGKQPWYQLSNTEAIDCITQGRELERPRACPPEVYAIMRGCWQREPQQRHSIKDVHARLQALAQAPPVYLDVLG
row,SMILES,IC50 [µM]
1,"CCOc1nn(-c2cnccn2)c(NC(=O)N[C@@H]2CN(CCOC)C[C@H]2c2ccc(F)c(F)c2)c1C [Example 394, 1-((3S,4R)-4-(3,4-difluorophenyl)-1-(2-methoxyethyl)pyrrolidin-3-yl)-3-(3-ethoxy-4-methyl-1-(pyrazin-2-yl)-1H-pyrazol-5-yl)urea]",0.1 to 1
2,"COCCN1C[C@@H](NC(=O)Nc2c(C)c(OC(=O)N(C)C)nn2-c2ccccc2)[C@H](c2ccc(F)c(F)c2)C1 [Example 396, 5-(3-((3S,4R)-4-(3,4-difluorophenyl)-1-(2-methoxyethyl)pyrrolidin-3-yl)ureido)-4-methyl-1-phenyl-1H-pyrazol-3-yl dimethylcarbamate]",< 0.1
3,"COCCN1C[C@@H](NC(=O)Nc2c(C)c(OC(=O)N3CCOCC3)nn2-c2ccccc2)[C@H](c2ccc(F)c(F)c2)C1 [Example 397, 5-(3-((3S,4R)-4-(3,4-difluorophenyl)-1-(2-methoxyethyl)pyrrolidin-3-yl)ureido)-4-methyl-1-phenyl-1H-pyrazol-3-yl morpholine-4-carboxylate]",< 0.1
4,"COCCN1C[C@@H](NC(=O)Nc2c(C)c(OC[C@@H]3COC(C)(C)O3)nn2-c2ccccc2)[C@H](c2cc(F)c(F)c(F)c2)C1 [Example 399, 1-(3-(((R)-2,2-dimethyl-1,3-dioxolan-4-yl)methoxy)-4-methyl-1-phenyl-1H-pyrazol-5-yl)-3-((3S,4R)-1-(2-methoxyethyl)-4-(3,4,5-trifluorophenyl)pyrrolidin-3-yl)urea]",< 0.1
5,"COCCN1C[C@@H](NC(=O)Nc2c(C)c(OC[C@H](C)O[Si](C)(C)C(C)(C)C)nn2-c2ccccc2)[C@H](c2cc(F)c(F)c(F)c2)C1 [Example 400, 1-(3-((S)-2-(tert-butyldimethylsilyloxy)propoxy)-4-methyl-1-phenyl-1H-pyrazol-5-yl)-3-((3S,4R)-1-(2-methoxyethyl)-4-(3,4,5-trifluorophenyl)pyrrolidin-3-yl)urea]",0.1 to 1
6,"COCCN1C[C@@H](NC(=O)Nc2c(C)c(OC[C@H](COC)O[Si](C)(C)C(C)(C)C)nn2-c2ccccc2)[C@H](c2ccc(F)c(F)c2)C1 [Example 402, 1-(3-((S)-2-(tert-butyldimethylsilyloxy)-3-methoxypropoxy)-4-methyl-1-phenyl-1H-pyrazol-5-yl)-3-((3S,4R)-4-(3,4-difluorophenyl)-1-(2-methoxyethyl)pyrrolidin-3-yl)urea_]",0.1 to 1
7,"COCCN1C[C@@H](NC(=O)Nc2c(Cl)c(C(F)(F)CO)nn2-c2ccccc2)[C@H](c2ccc(F)c(F)c2)C1 [Example 409, 1-(4-chloro-3-(1,1-difluoro-2-hydroxyethyl)-1-phenyl-1H-pyrazol-5-yl)-3-((3S,4R)-4-(3,4-difluorophenyl)-1-(2-methoxyethyl)pyrrolidin-3-yl)urea]",< 0.1
8,"COCCN1C[C@@H](NC(=O)Nc2c(Cl)c(C[C@H](C)O)nn2-c2ccccc2)[C@H](c2ccc(F)c(F)c2)C1 [Example 412, 1-(4-chloro-3-((S)-2-hydroxypropyl)-1-phenyl-1H-pyrazol-5-yl)-3-((3S,4R)-4-(3,4-difluorophenyl)-1-(2-methoxyethyl)pyrrolidin-3-yl)urea]",< 0.1
9,"COCCN1C[C@@H](NC(=O)Nc2c(Cl)c(C[C@@H](C)O)nn2-c2ccccc2)[C@H](c2ccc(F)c(F)c2)C1 [Example 413, 1-(4-chloro-3-((R)-2-hydroxypropyl)-1-phenyl-1H-pyrazo1-5-yl)-3-((3S,4R)-4-(3,4-difluorophenyl)-1-(2-methoxyethyl)pyrrolidin-3-yl)urea]",< 0.1
10,"COCCN1C[C@@H](NC(=O)Nc2c(Cl)c(CC(C)(C)O)nn2-c2ccccc2)[C@H](c2ccc(F)c(F)c2)C1 [Example 415, 1-(4-chloro-3-(2-hydroxy-2-methylpropyl)-1-phenyl-1H-pyrazol-5-yl)-3-((3S,4R)-4-(3,4-difluorophenyl)-1-(2-methoxyethyl)pyrrolidin-3-yl)urea]",< 0.1
11,"COCCN1C[C@@H](NC(=O)Nc2c(Br)c(C(C)(C)C#N)nn2-c2ccccc2)[C@H](c2ccc(F)c(F)c2)C1 [Example 417, 1-(4-bromo-3-(2-cyanopropan-2-yl)-1-phenyl-1H-pyrazol-5-yl)-3-((3S,4R)-4-(3,4-difluorophenyl)-1-(2-methoxyethyl)pyrrolidin-3-yl)urea]",< 0.1

# Next, values leading:
row,IC50 [µM],SMILES
1,< 0.1,"COCCN1C[C@@H](NC(=O)Nc2c(C)c(OC[C@@H]3COC(C)(C)O3)nn2-c2ccccc2)[C@H](c2cc(F)cc(F)c2)C1 [Example 392, 1-((3S,4R)-4-(3,5-difluorophenyl)-1-(2-methoxyethyl)pyrrolidin-3-yl)-3-(3-(((R)-2,2-dimethyl-1,3-dioxolan-4-yl)methoxy)-4-methyl-1-phenyl-1H-pyrazol-5-yl)urea]"
2,< 0.1,"COCCN1C[C@@H](NC(=O)Nc2c(C)c(OC[C@H]3COC(C)(C)O3)nn2-c2ccccc2)[C@H](c2cc(F)cc(F)c2)C1 [Example 393, 1-((3S,4R)-4-(3,5-difluorophenyl)-1-(2-methoxyethyl)pyrrolidin-3-yl)-3-(3-(((S)-2,2-dimethyl-1,3-dioxolan-4-yl)methoxy)-4-methyl-1-phenyl-1H-pyrazol-5-yl)urea]"
3,0.1 to 1,"COCCN1C[C@@H](NC(=O)Nc2c3c(nn2-c2ccnnc2)CCC3)[C@H](c2ccc(F)c(F)c2)C1 [Example 395, 1-((3S,4R)-4-(3,4-difluorophenyl)-1-(2-methoxyethyl)pyrrolidin-3-yl)-3-(2-(pyridazin-4-yl)-2,4,5,6-tetrahydrocyclopenta[c]pyrazol-3-yl)urea]"
4,< 0.1,"COCCN1C[C@@H](NC(=O)Nc2c(C)c(OC[C@H]3COC(C)(C)O3)nn2-c2ccccc2)[C@H](c2cc(F)c(F)c(F)c2)C1 [Example 398, 1-(3-(((S)-2,2-dimethyl-1,3-dioxolan-4-yl)methoxy)-4-methyl-1-phenyl-1H-pyrazol-5-yl)-3-((3S,4R)-1-(2-methoxyethyl)-4-(3,4,5-trifluorophenyl)pyrrolidin-3-yl)urea]"
5,< 0.1,"COCCN1C[C@@H](NC(=O)Nc2c(C)c(OCC(C)(C)O)nn2-c2ccccc2)[C@H](c2cc(F)c(F)c(F)c2)C1 [Example 401, 1-(3-(2-hydroxy-2-methylpropoxy)-4-methyl-1-phenyl-1H-pyrazol-5-yl)-3-((3S,4R)-1-(2-methoxyethyl)-4-(3,4,5-trifluorophenyl)pyrrolidin-3-yl)urea]"
6,< 0.1,"COCCN1C[C@@H](NC(=O)Nc2c(Cl)c(COC)nn2-c2ccccc2)[C@H](c2ccc(F)c(F)c2)C1 [Example 403, 1-(4-chloro-3-(methoxymethyl)-1-phenyl-1H-pyrazol-5-yl)-3-((3S,4R)-4-(3,4-difluorophenyl)-1-(2-methoxyethyl)pyrrolidin-3-yl)urea]"
7,< 0.1,"COCCN1C[C@@H](NC(=O)Nc2c(Br)c(COC)nn2-c2ccccc2)[C@H](c2ccc(F)c(F)c2)C1 [Example 404, 1-(4-bromo-3-(methoxymethyl)-1-phenyl-1H-pyrazol-5-yl)-3-((3S,4R)-4-(3,4-difluorophenyl)-1-(2-methoxyethyl)pyrrolidin-3-yl)urea]"
8,< 0.1,"COCCN1C[C@@H](NC(=O)Nc2c(Cl)c(COC)nn2-c2ccccc2)[C@H](c2cc(F)cc(F)c2)C1 [Example 405, 1-(4-chloro-3-(methoxymethyl)-1-phenyl-1H-pyrazol-5-yl)-3-((3S,4R)-4-(3,5-difluorophenyl)-1-(2-methoxyethyl)pyrrolidin-3-yl)urea]"
9,< 0.1,"COCCN1C[C@@H](NC(=O)Nc2c(Br)c(COC)nn2-c2ccccc2)[C@H](c2cc(F)cc(F)c2)C1 [Example 406, 1-(4-bromo-3-(methoxymethyl)-1-phenyl-1H-pyrazol-5-yl)-3-((3S,4R)-4-(3,5-difluorophenyl)-1-(2-methoxyethyl)pyrrolidin-3-yl)urea]"
10,< 0.1,"COCCN1C[C@@H](NC(=O)Nc2c(Cl)c(COC)nn2-c2ccccc2)[C@H](c2ccc(F)cc2)C1 [Example 407, 1-(4-chloro-3-(methoxymethyl)-1-phenyl-1H-pyrazol-5-yl)-3-((3S,4R)-4-(4-fluorophenyl)-1-(2-methoxyethyl)pyrrolidin-3-yl)urea]"
11,< 0.1,"COCCN1C[C@@H](NC(=O)Nc2c(Br)c(COC)nn2-c2ccccc2)[C@H](c2ccc(F)cc2)C1 [Example 408, 1-(4-bromo-3-(methoxymethyl)-1-phenyl-1H-pyrazol-5-yl)-3-((3S,4R)-4-(4-fluorophenyl)-1-(2-methoxyethyl)pyrrolidin-3-yl)urea]"
12,< 0.1,"COCCN1C[C@@H](NC(=O)Nc2c(Cl)c(C(F)(F)CO)nn2-c2ccccc2)[C@H](c2cc(F)cc(F)c2)C1 [Example 410, 1-(4-chloro-3-(1,1-difluoro-2-hydroxyethyl)-1-phenyl-1H-pyrazol-5-yl)-3-((3S,4R)-4-(3,5-difluorophenyl)-1-(2-methoxyethyl)pyrrolidin-3-yl)urea]"
13,< 0.1,"COCCN1C[C@@H](NC(=O)Nc2c(Cl)c(C(F)(F)CO)nn2-c2ccccc2)[C@H](c2ccc(F)cc2)C1 [Example 411, 1-(4-chloro-3-(1,1-difluoro-2-hydroxyethyl)-1-phenyl-1H-pyrazol-5-yl)-3-((3S,4R)-4-(4-fluorophenyl)-1-(2-methoxyethyl)pyrrolidin-3-yl)urea]"
14,< 0.1,"COCCN1C[C@@H](NC(=O)Nc2c(Br)c(C[C@@H](C)O)nn2-c2ccccc2)[C@H](c2ccc(F)c(F)c2)C1 [Example 414, 1-(4-bromo-3-((R)-2-hydroxypropyl)-1-phenyl-1H-pyrazol-5-yl)-3-((3S,4R)-4-(3,4-difluorophenyl)-1-(2-methoxyethyl)pyrrolidin-3-yl)urea]"
15,< 0.1,"COCCN1C[C@@H](NC(=O)Nc2c(Cl)c(-c3nc(C)no3)nn2-c2ccccc2)[C@H](c2ccc(F)c(F)c2)C1 [Example 416, 1-(4-chloro-3-(3-methyl-1,2,4-oxadiazol-5-yl)-1-phenyl-1H-pyrazol-5-yl)-3-((3S,4R)-4-(3,4-difluorophenyl)-1-(2-methoxyethyl)pyrrolidin-3-yl)urea]"
